Reference: article PMC10937556, “Phenolic phytochemistry, in vitro, in silico, in vivo, and mechanistic anti-inflammatory and antioxidant evaluations of Habenaria digitata” (Frontiers in Pharmacology, 2024)
Where a name gives a salt, the structure may show the parent alone.

Experiments:
[1] = DPPH free radical scavenging assay
Protocol: The DPPH (anti-radicals) investigation was carried out according to our earlier reported protocols. Initially, a methanolic DPPH solution was prepared with a concentration of 0.1%. Subsequently, 100 µL of this solution was mixed with an equal volume of the test samples (100 µL) in 96-well plates, following a 30-min incubation period at 25°C ± 3 °C in the dark. Solutions with concentrations ranging from […] were prepared. Five concentrations of 1,000, 500, 250, 125, and 62.5 µM of the Trolox methanolic solution ([…]) were formed. A color reduction in DPPH was observed after incubation; a microplate reader was used, and absorbance was measured at 540 nm ([Mahnashi et al., 2022a]; [Huneif et al., 2022]). The percentage of scavenging was determined by the formula: Scavenging effect %=control absorbance−sample absorbance/control absorbance×100.

[2] = ABTS free radical scavenging assay
Protocol: The ABTS anti-radicals’ analysis was carried out according to [Shah et al. (2015)]. The ABTS solution was prepared by dissolving ABTS salt (192 mg) in distilled H2O, transferred to a flask (50 mL), and volume was adjusted. Thereafter, 1 mL of the preceding solution was added to 17 µL of K₂S₂O₈ (140 mM) and placed in the dark for 24 h s. The experiment’s ultimate ABTS dilution was achieved by mixing 1 mL of the reaction mixture with 50 mL of methanol. The ABTS solution (190 µL) was mixed with the sample solution (10 µL) and added to 96-well plates, which were then incubated at room temperature in dark for 2 h. Following incubation, the measurement of ABTS color intensity was conducted using a microplate reader at 734 nm. Positive control solutions were prepared at values of 1,000–62.5 µM. The percentage of ABTS scavenging was determined by using the following equation: % ABTS scavenging=Control−Sample/control×100.

[3] = H2O2 free radical scavenging activity
Protocol: The antioxidant potential of isolated compounds was determined using this approach. In a phosphate buffer solution (50 mM, pH 7.40), a solution of H2O2 (2 mM) was produced. The crude extract (0.10 mL) was measured in a test tube and diluted to 0.40 mL using phosphate buffer. Thereafter, H2O2 (0.60 mL) was added and thoroughly mixed. […] 230 nm was used to measure the absorbance of the sample and the standard ([Sadiq et al., 2018]). For all the crude samples, the exact process was followed. According to the procedure, the inhibition percentage and IC50 values were computed.

[4] = system: carrageenan-induced paw edema; experiment: Carrageenan-induced paw edema; format: in vivo, mice; details: dose 5 mg/kg
Protocol: Mice of both sexes (25–30 g) were used for in vivo anti-inflammatory activity of test samples on the carrageenan-induced inflammation model ([Munir et al., 2020]). Mice were distributed into five groups, with eight animals in each group, divided at random. Group-I served as the negative control and received DMSO at a dose of 10 mL/kg body weight. Group-II served as a positive control, which received aspirin at a dose of 100 mg/kg body weight. […] Each mouse received 1 percent (w/v) saline solution (0.05 mL) of carrageenan in the sub-planter region after a 30-min interval. The paw edema volume was determined using a plethysmometer (LE 7500-plan lab S.L) at 1–5 h intervals after carrageenan was given. […] The percentages of inhibition of inflammation were calculated using the formula given below: % inhibition=EC−ET/EC×100, where “EC” is the average edema of control and “ET” is the edema of the tested group.

[5] = system: prostaglandin E2-induced paw edema; experiment: Prostaglandin E2-induced paw edema; details: 50 mg/kg
Protocol: (§1) Employing prostaglandin E2, bradykinin, leukotriene, and histamine induced paw edema assays; the potential anti-inflammatory mechanism of the isolated compound was investigated. […] Sub-planter injections of prostaglandin E2 (0.01 mg/mL) or 10 mg/mL leukotriene or bradykinin (20 mg/mL) or 0.1 mL histamine (1 mg/mL) produced paw edema after 1 h. Each mouse’s paw volume was assessed immediately before and after sub-planter injection of various irritants (inflammatory agents) at 1–5 h.

[6] = system: leukotriene-induced paw edema; experiment: Leukotriene-induced paw edema; details: standard drug, 3rd hour
Protocol: as §1

SOD = experiment: In vivo antioxidant: SOD activity in brain, heart, liver; set-up: species or system mice; details: p < 0.05, D-galactose aging mice
[7] = system: histamine-induced paw edema; experiment: Histamine-induced paw edema; details: reference drug, 1 h
Protocol: as §1

O=C1O[C@H]([C@@H](O)CO)C(O)=C1O [AA, ascorbic acid, reference compound]
DPPH IC50 [1]: 0.47 µg/mL
DPPH % inhibition ([1]; 62.5 µg/mL): 81.35 ± 0.18%
DPPH % inhibition ([1]; 125 µg/mL): 84.20 ± 0.15%
DPPH % inhibition ([1]; 250 µg/mL): 88.42 ± 0.11%
DPPH % inhibition ([1]; 500 µg/mL): 93.62 ± 0.17%
DPPH % inhibition ([1]; 1,000 µg/mL): 97.53 ± 0.20%
ABTS IC50 [2]: 0.12 µg/mL
ABTS % inhibition ([2]; 62.5 µg/mL): 81.12 ± 0.34%
ABTS % inhibition ([2]; 125 µg/mL): 84.47 ± 0.49%
ABTS % inhibition ([2]; 250 µg/mL): 87.75 ± 0.14%
ABTS % inhibition ([2]; 500 µg/mL): 91.59 ± 0.30%
ABTS % inhibition ([2]; 1,000 µg/mL): 95.85 ± 0.18%
H2O2 IC50 [3]: 02 µg/mL
H2O2 % inhibition ([3]; 62.5 µg/mL): 71.73 ± 0.66%
H2O2 % inhibition ([3]; 125 µg/mL): 73.70 ± 0.35%
H2O2 % inhibition ([3]; 250 µg/mL): 78.07 ± 0.62%
H2O2 % inhibition ([3]; 500 µg/mL): 83.01 ± 0.42%
H2O2 % inhibition ([3]; 1,000 µg/mL): 87.50 ± 2.26%

CC(=O)Oc1ccccc1C(=O)O [Aspirin, reference compound]
Percentage inhibition of paw edema ([4]; 1 h): 47.50 ± 1.10 %
Percentage inhibition of paw edema ([4]; 2 h): 53.61 ± 1.45 %
Percentage inhibition of paw edema ([4]; 3 h): 54.24 ± 1.34 %
Percentage inhibition of paw edema ([4]; 4 h): 57.90 ± 1.93 %
Percentage inhibition of paw edema ([4]; 5 h): 58.62 ± 1.53 %
Percentage inhibition of paw edema ([4]; 5 h, listed as aspirin): 58.62%

Cc1ccc(-c2cc(C(F)(F)F)nn2-c2ccc(S(N)(=O)=O)cc2)cc1 [Celecoxib, reference compound]
Effect on increased PGE2 level [5]: significant reduction

CC(C)(O)c1ccccc1CC[C@@H](SCC1(CC(=O)O)CC1)c1cccc(/C=C/c2ccc3ccc(Cl)cc3n2)c1 [Montelukast, reference compound]
Percentage inhibition of leukotriene-induced paw edema [6]: 67.02 ± 1.74%

Cc1c(C)c2c(c(C)c1O)CCC(C)(C(=O)O)O2 (stereo not shown) [Trolox, reference compound]
SOD activity compared to the model group (SOD): higher

CN(C)CCC(c1ccc(Cl)cc1)c1ccccn1 (stereo not shown) [chlorpheniramine maleate, reference compound]
Percentage inhibition of histamine-induced paw edema [7]: 71.62 ± 1.16%
